Patent publication US20070117770A1, “Human ribosomal DNA (rDNA) and ribosomal RNA (rRNA) nucleic acids and uses thereof” (Cylene Pharmaceuticals, Inc., priority 2005, published 2007)

What was measured:
Assay in all cases: Protein kinase inhibition assay
Type in all cases: biochemical
SAPK2a(h) = SAPK2a(h) (Homo sapiens, UniProt Q16539); details: read-out: percent residual activity of SAPK2a(h)
Procedure: (§1) Certain compounds were tested for activity in protein kinase inhibition assays. All substrates were dissolved and diluted to working stocks in de-ionized water, apart from histone H1 (10× working stock in 20 mM MOPS pH 7.0), PDKtide (10× working stock in 50 mM Tris pH 7.0) ATF2 (which is typically stored at a 20× working stock in 50 mM Tris pH 7.5, 150 mM NaCl, 0.1 mM EGTA, 0.03% Brij-35, 50% glycerol, 1 mM benzamidine, 0.2 mM PMSF and 0.1% R-mercaptoethanol), KKLNRTLSFAEPG (SEQ ID NO:203) and RRRLSFAEPG (SEQ ID NO:204) (50 mM HEPES pH 7.4) and GGEEEEYFELVKKKK (SEQ ID NO:205) (20 mM MOPS pH 7.0). All kinases were pre-diluted to a 10× working concentration prior to addition into the assay. The composition of the dilution buffer for each kinase is detailed below.
(§2) In a final reaction volume of 25 μl, SAPK2a (h) (5-10 mU) is incubated with 25 mM Tris pH 7.5, 0.02 mM EGTA, 0.33 mg/ml myelin basic protein, 10 mM MgAcetate and [gamma-33P-ATP] (specific activity approx. 500 cpm/pmol, concentration as required). The reaction is initiated by the addition of the MgATP mix. After incubation for 40 minutes at room temperature, the reaction is stopped by the addition of 5 μl of a 3% phosphoric acid solution. 10 μl of the reaction is then spotted onto a P30 filtermat and washed three times for 5 minutes in 75 mM phosphoric acid and once in methanol prior to drying and scintillation counting.

Arg(h) = Arg(h) (Homo sapiens, UniProt P42684); details: read-out: percent residual activity of Arg(h)
Procedure: as §1
as §2, with “μl, Arg” for “μl, SAPK2a”, “with 8” for “with 25”, “mM MOPS” for “mM Tris”, “pH 7.0, 0.2” for “pH 7.5, 0.02”, “mM EDTA, 50 μM EAIYAAPFAKKK (SEQ ID NO:206),” for “mM EGTA, 0.33 mg/ml myelin basic protein,”, “10 pi” for “10 μl”

PDK1(h) = PDK1(h) (Homo sapiens, UniProt O15530); details: read-out: percent residual activity of PDK1(h)
Procedure: as §1
In a final reaction volume of 25 μl, PDK1 (h) (5-10 mU) is incubated with 50 mM Tris pH 7.5, 100 μM […] (SEQ ID NO:217) (PDKtide), 0.1% R-mercaptoethanol, 10 mM MgAcetate and [gamma-33P-ATP] (specific activity approx. 500 cpm/pmol, concentration as required). The reaction is initiated by the addition of the MgATP mix. After incubation for 40 minutes at room temperature, the reaction is stopped by the addition of 5 μl of a 3% phosphoric acid solution. […]

CK1δ(h) = CK1δ(h) (Homo sapiens, UniProt P48730); details: read-out: percent residual activity of CK1δ(h)
Procedure: as §1
as §2, with “μl, CK1δ” for “μl, SAPK2a”, “with 8” for “with 25”, “mM MOPS” for “mM Tris”, “pH 7.0, 0.2” for “pH 7.5, 0.02”, “mM EDTA, 200 μM KRRRALS(p)VASLPGL (SEQ ID NO:214),” for “mM EGTA, 0.33 mg/ml myelin basic protein,”

Plk3(h) = Plk3(h) (Homo sapiens, UniProt Q9H4B4); details: read-out: percent residual activity of Plk3(h)
Procedure: as §1
as §2, with “μl, Plk3” for “μl, SAPK2a”, “with 8” for “with 25”, “mM MOPS” for “mM Tris”, “pH 7.0, 0.2” for “pH 7.5, 0.02”, “mM EDTA, 2” for “mM EGTA, 0.33”, “mg/ml casein,” for “mg/ml myelin basic protein,”

SAPK4(h) = SAPK4(h) (Homo sapiens, UniProt O15264); details: read-out: percent residual activity of SAPK4(h)
Procedure: as §1
as §2, with “SAPK4” for “SAPK2a”

Chain of CK1δ(h) (P48730 whole entry): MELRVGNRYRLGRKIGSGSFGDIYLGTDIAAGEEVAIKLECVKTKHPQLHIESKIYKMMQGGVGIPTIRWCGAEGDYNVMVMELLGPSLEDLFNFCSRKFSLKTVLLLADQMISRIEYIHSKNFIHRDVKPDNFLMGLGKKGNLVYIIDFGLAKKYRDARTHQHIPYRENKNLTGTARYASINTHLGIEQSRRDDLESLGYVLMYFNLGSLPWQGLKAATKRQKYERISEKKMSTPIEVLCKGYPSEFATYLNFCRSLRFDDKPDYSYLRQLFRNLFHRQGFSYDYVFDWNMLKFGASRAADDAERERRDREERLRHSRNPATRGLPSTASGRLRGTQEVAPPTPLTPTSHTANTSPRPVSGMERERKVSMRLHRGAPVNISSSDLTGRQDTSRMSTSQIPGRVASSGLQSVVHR
Chain of SAPK2a(h) (Q16539 whole entry): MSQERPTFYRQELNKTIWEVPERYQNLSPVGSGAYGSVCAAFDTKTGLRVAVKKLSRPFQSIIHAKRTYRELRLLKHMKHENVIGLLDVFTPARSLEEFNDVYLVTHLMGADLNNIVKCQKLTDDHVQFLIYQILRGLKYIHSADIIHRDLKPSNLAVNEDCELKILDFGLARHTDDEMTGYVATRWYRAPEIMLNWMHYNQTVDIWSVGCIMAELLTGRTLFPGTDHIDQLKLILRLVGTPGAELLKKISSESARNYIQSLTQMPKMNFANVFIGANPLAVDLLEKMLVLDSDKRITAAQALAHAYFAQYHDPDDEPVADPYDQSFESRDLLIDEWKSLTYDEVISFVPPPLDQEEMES
Chain of PDK1(h) (O15530 whole entry): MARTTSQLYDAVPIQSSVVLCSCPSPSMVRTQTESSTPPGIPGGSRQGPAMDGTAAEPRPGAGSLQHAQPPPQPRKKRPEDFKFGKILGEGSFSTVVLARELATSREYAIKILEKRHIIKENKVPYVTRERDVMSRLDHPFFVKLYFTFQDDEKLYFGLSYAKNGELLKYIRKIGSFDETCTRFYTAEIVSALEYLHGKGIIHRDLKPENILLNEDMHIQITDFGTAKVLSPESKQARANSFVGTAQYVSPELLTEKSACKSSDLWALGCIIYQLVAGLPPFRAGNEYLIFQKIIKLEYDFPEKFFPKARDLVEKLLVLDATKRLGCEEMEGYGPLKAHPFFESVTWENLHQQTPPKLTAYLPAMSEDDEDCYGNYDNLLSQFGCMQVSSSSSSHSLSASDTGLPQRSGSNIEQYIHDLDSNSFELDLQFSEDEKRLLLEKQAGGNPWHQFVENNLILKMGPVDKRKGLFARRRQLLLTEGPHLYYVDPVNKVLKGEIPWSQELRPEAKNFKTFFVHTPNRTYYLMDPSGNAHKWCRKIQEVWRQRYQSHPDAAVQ
Chain of Plk3(h) (Q9H4B4 whole entry): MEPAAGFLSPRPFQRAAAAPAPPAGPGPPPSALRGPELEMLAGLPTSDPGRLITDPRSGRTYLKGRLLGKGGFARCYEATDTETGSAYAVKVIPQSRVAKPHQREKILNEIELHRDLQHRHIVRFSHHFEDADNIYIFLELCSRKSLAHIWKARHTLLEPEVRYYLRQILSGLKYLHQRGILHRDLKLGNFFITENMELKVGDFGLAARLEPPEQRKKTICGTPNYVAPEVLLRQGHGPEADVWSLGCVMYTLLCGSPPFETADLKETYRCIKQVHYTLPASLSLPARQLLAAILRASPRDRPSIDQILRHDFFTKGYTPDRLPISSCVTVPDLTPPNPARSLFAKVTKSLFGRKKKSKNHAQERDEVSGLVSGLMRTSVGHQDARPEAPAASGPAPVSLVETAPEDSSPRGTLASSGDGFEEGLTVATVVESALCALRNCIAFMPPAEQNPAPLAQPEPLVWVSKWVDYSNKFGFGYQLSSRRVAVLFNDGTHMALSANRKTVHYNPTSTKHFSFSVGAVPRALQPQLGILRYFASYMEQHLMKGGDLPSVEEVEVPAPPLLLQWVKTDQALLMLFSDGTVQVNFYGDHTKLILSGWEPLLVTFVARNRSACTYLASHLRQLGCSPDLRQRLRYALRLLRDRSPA
Chain of SAPK4(h) (O15264 whole entry): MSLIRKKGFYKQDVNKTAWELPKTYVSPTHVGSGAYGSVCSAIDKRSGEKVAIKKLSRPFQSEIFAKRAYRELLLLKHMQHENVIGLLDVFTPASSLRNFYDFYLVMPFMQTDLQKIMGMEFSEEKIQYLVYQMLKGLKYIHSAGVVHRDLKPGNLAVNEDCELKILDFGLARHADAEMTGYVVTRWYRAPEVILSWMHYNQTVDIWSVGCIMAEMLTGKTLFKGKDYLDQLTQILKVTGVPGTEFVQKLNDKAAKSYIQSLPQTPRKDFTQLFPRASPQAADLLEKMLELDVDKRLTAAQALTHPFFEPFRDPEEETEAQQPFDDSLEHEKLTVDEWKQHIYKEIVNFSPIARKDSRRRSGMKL
Chain of Arg(h) (P42684 whole entry): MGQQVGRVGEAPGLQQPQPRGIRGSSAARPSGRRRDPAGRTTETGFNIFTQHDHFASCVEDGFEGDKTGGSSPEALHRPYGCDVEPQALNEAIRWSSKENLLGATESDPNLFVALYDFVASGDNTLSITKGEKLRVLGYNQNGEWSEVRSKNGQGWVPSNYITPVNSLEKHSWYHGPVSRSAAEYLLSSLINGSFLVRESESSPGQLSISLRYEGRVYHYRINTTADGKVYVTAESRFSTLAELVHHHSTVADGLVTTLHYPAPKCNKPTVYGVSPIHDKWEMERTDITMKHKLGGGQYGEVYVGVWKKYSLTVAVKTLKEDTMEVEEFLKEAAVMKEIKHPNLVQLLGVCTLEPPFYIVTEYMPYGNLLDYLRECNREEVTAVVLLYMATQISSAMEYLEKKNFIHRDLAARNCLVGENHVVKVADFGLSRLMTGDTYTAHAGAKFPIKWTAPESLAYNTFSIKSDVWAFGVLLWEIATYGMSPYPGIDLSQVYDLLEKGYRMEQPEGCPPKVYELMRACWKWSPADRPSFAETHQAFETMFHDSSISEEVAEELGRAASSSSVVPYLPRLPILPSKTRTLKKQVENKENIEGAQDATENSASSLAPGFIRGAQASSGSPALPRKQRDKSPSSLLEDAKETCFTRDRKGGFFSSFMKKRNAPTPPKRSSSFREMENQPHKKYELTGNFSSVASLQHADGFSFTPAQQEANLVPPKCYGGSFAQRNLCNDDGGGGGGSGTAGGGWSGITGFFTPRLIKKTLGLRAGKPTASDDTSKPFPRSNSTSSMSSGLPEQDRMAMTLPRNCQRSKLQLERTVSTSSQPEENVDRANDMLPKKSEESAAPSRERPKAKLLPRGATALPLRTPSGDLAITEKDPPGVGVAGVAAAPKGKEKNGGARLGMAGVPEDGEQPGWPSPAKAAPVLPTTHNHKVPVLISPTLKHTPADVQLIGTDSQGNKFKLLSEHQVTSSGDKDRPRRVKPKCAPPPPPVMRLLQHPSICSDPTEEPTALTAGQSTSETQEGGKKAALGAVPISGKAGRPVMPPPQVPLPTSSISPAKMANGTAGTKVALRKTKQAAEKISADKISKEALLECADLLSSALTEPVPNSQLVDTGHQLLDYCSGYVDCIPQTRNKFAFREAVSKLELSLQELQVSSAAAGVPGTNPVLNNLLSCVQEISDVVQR

SMILES | remaining activity at 2.5 µM (SAPK2a(h)) | remaining activity at 2.5 µM (Arg(h)) | remaining activity at 2.5 µM (PDK1(h)) | remaining activity at 2.5 µM (CK1δ(h)) | remaining activity at 2.5 µM (Plk3(h)) | remaining activity at 2.5 µM (SAPK4(h))
CN1CCCC1CCNC(=O)c1cn2c3c(c(N4CCC(c5cnccn5)C4)c(F)cc3c1=O)Oc1cc3ccccc3cc1-2 (stereo not drawn) [Compound A-1] | 97% | 46% | 121% | 87% | 92% | 31%
CC(=O)N1CCN(c2ccc3c(=O)c(C(=O)NCCN4CCCC4)c4n(C)c5ccccc5n4c3n2)CC1 [Compound B-1] | 103% | 94% | 109% | 92% | 86% | 105%
